Legend:
Assay in all cases: relative viability (nuclei count vs DMSO), 5 days (fraction); higher = more cells survive
SW 1573 = test system: SW 1573
Procedure, shortened: (§1)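 Nuclei were stained with Hoechst during a one-step fixation (final 0.05% Triton X-100, 1% formaldehyde, 1 ug/ml Hoechst) carried out 5 days after dosing, then counted on 4× images. The cells, lung cancer lines in 1536-well plates, had been dosed by pin tool the day after seeding with one drug alone or a fixed anchor-drug dose plus five library-drug doses (not always all listed) in √10 steps. Relative viability is the nuclei count in treated wells divided by that in vehicle wells, and each value is the median of duplicate plates.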

NCI-H2009 = test system: NCI-H2009
Procedure, shortened: as §1

HOP-62 = test system: HOP-62
Procedure, shortened: as §1

NCI-H2170 = test system: NCI-H2170
Procedure, shortened: as §1

EMC-BAC-2 = test system: EMC-BAC-2
Procedure, shortened: as §1

PC-3 [JPC-3] = test system: PC-3 [JPC-3]
Procedure, shortened: as §1

A-427 = test system: A-427
Procedure, shortened: as §1

NCI-H727 = test system: NCI-H727
Procedure, shortened: as §1

HARA = test system: HARA
Procedure, shortened: as §1

NCI-H1993 = test system: NCI-H1993
Procedure, shortened: as §1

NCI-H322M = test system: NCI-H322M
Procedure, shortened: as §1

ABC-1 = test system: ABC-1
Procedure, shortened: as §1

NCI-H596 = test system: NCI-H596
Procedure, shortened: as §1

NCI-H1944 = test system: NCI-H1944
Procedure, shortened: as §1

NCI-H2228 = test system: NCI-H2228
Procedure, shortened: as §1

NCI-H3122 = test system: NCI-H3122
Procedure, shortened: as §1

SW 900 = test system: SW 900
Procedure, shortened: as §1

LK-2 = test system: LK-2
Procedure, shortened: as §1

LXF-289 = test system: LXF-289
Procedure, shortened: as §1

SK-MES-1 = test system: SK-MES-1
Procedure, shortened: as §1

Structure (SMILES): O=c1cc(N2CCOCC2)oc2c(-c3cccc4c3sc3ccccc34)cccc12 + COc1cc2c(Oc3ccc(NC(=O)C4(C(=O)Nc5ccc(F)cc5)CC4)cc3F)ccnc2cc1OCCCN1CCOCC1 [Foretinib] (partner 0.25 µM)
- relative viability (SW 1573; first compound 0.01 µM): 0.537
- relative viability (SW 1573; first compound 0.03162 µM): 0.982
- relative viability (SW 1573; first compound 0.1 µM): 0.87
- relative viability (SW 1573; first compound 0.3162 µM): 0.87
- relative viability (SW 1573; first compound 1 µM): 1.07
- relative viability (NCI-H2009; first compound 0.01 µM): 1.19
- relative viability (NCI-H2009; first compound 0.03162 µM): 1.21
- relative viability (NCI-H2009; first compound 0.1 µM): 1.23
- relative viability (NCI-H2009; first compound 0.3162 µM): 1.22
- relative viability (NCI-H2009; first compound 1 µM): 1.11
- relative viability (HOP-62; first compound 0.01 µM): 1.1
- relative viability (HOP-62; first compound 0.03162 µM): 1.17
- relative viability (HOP-62; first compound 0.1 µM): 1.11
- relative viability (HOP-62; first compound 0.3162 µM): 1.14
- relative viability (HOP-62; first compound 1 µM): 1.16
- relative viability (NCI-H2170; first compound 0.01 µM): 0.968
- relative viability (NCI-H2170; first compound 0.03162 µM): 0.542
- relative viability (NCI-H2170; first compound 0.1 µM): 1.03
- relative viability (NCI-H2170; first compound 0.3162 µM): 0.935
- relative viability (NCI-H2170; first compound 1 µM): 0.942
- relative viability (EMC-BAC-2; first compound 0.01 µM): 1.01
- relative viability (EMC-BAC-2; first compound 0.03162 µM): 0.995
- relative viability (EMC-BAC-2; first compound 0.1 µM): 0.99
- relative viability (EMC-BAC-2; first compound 0.3162 µM): 0.983
- relative viability (EMC-BAC-2; first compound 1 µM): 0.978
- relative viability (PC-3 [JPC-3]; first compound 0.01 µM): 1.01
- relative viability (PC-3 [JPC-3]; first compound 0.03162 µM): 1.08
- relative viability (PC-3 [JPC-3]; first compound 0.1 µM): 1.05
- relative viability (PC-3 [JPC-3]; first compound 0.3162 µM): 1.01
- relative viability (PC-3 [JPC-3]; first compound 1 µM): 1.06
- relative viability (A-427; first compound 0.01 µM): 1.04
- relative viability (A-427; first compound 0.03162 µM): 1.2
- relative viability (A-427; first compound 0.1 µM): 0.972
- relative viability (A-427; first compound 0.3162 µM): 1.01
- relative viability (A-427; first compound 1 µM): 1
- relative viability (NCI-H727; first compound 0.01 µM): 1.05
- relative viability (NCI-H727; first compound 0.03162 µM): 0.822
- relative viability (NCI-H727; first compound 0.1 µM): 0.908
- relative viability (NCI-H727; first compound 0.3162 µM): 1
- relative viability (NCI-H727; first compound 1 µM): 0.865
- relative viability (HARA; first compound 0.01 µM): 0.768
- relative viability (HARA; first compound 0.03162 µM): 0.897
- relative viability (HARA; first compound 0.1 µM): 0.857
- relative viability (HARA; first compound 0.3162 µM): 0.864
- relative viability (HARA; first compound 1 µM): 0.903
- relative viability (NCI-H1993; first compound 0.01 µM): 0.681
- relative viability (NCI-H1993; first compound 0.03162 µM): 0.845
- relative viability (NCI-H1993; first compound 0.1 µM): 0.878
- relative viability (NCI-H1993; first compound 0.3162 µM): 0.765
- relative viability (NCI-H1993; first compound 1 µM): 0.748
- relative viability (NCI-H322M; first compound 0.01 µM): 0.91
- relative viability (NCI-H322M; first compound 0.03162 µM): 0.903
- relative viability (NCI-H322M; first compound 0.1 µM): 0.888
- relative viability (NCI-H322M; first compound 0.3162 µM): 0.917
- relative viability (NCI-H322M; first compound 1 µM): 0.849
- relative viability (ABC-1; first compound 0.01 µM): 1.03
- relative viability (ABC-1; first compound 0.03162 µM): 0.943
- relative viability (ABC-1; first compound 0.1 µM): 1.48
- relative viability (ABC-1; first compound 0.3162 µM): 1.11
- relative viability (ABC-1; first compound 1 µM): 1.02
- relative viability (NCI-H596; first compound 0.01 µM): 0.838
- relative viability (NCI-H596; first compound 0.03162 µM): 0.946
- relative viability (NCI-H596; first compound 0.1 µM): 0.821
- relative viability (NCI-H596; first compound 0.3162 µM): 0.96
- relative viability (NCI-H596; first compound 1 µM): 0.918
- relative viability (NCI-H1944; first compound 0.01 µM): 0.876
- relative viability (NCI-H1944; first compound 0.03162 µM): 0.928
- relative viability (NCI-H1944; first compound 0.1 µM): 0.829
- relative viability (NCI-H1944; first compound 0.3162 µM): 0.89
- relative viability (NCI-H1944; first compound 1 µM): 0.821
- relative viability (NCI-H2228; first compound 0.01 µM): 0.864
- relative viability (NCI-H2228; first compound 0.03162 µM): 1.08
- relative viability (NCI-H2228; first compound 0.1 µM): 0.981
- relative viability (NCI-H2228; first compound 0.3162 µM): 0.89
- relative viability (NCI-H2228; first compound 1 µM): 0.9
- relative viability (NCI-H3122; first compound 0.01 µM): 0.953
- relative viability (NCI-H3122; first compound 0.03162 µM): 0.918
- relative viability (NCI-H3122; first compound 0.1 µM): 1
- relative viability (NCI-H3122; first compound 0.3162 µM): 0.932
- relative viability (NCI-H3122; first compound 1 µM): 0.954
- relative viability (SW 900; first compound 0.01 µM): 0.859
- relative viability (SW 900; first compound 0.03162 µM): 0.888
- relative viability (SW 900; first compound 0.1 µM): 0.789
- relative viability (SW 900; first compound 0.3162 µM): 0.798
- relative viability (SW 900; first compound 1 µM): 0.818
- relative viability (LK-2; first compound 0.01 µM): 1.17
- relative viability (LK-2; first compound 0.03162 µM): 1.16
- relative viability (LK-2; first compound 0.1 µM): 1.53
- relative viability (LK-2; first compound 0.3162 µM): 0.958
- relative viability (LK-2; first compound 1 µM): 0.951
- relative viability (LXF-289; first compound 0.01 µM): 0.969
- relative viability (LXF-289; first compound 0.03162 µM): 0.984
- relative viability (LXF-289; first compound 0.1 µM): 1
- relative viability (LXF-289; first compound 0.3162 µM): 0.97
- relative viability (LXF-289; first compound 1 µM): 0.965
- relative viability (SK-MES-1; first compound 0.01 µM): 1.13
- relative viability (SK-MES-1; first compound 0.03162 µM): 0.771
- relative viability (SK-MES-1; first compound 0.1 µM): 0.847
- relative viability (SK-MES-1; first compound 0.3162 µM): 0.968
- relative viability (SK-MES-1; first compound 1 µM): 0.91

From the supplement of paper PMC10307832
